# Measured values reported in patent US20240416143A1, “PHOTONIC ANTIMICROBIAL WOUND SURFACE DRESSING” (The General Hospital Corporation, priority 2021, published 2024).
# Experiments:
# P. aeruginosa = experiment: Photoinactivation of planktonic cultures by menadione + antimicrobial blue light; format: cell-based, Pseudomonas aeruginosa PA01; details: menadione ⅛ MIC + aBL 90 J/cm^2 (50 mW/cm^2), 405 nm
# Protocol: The bacterial cells were grown in BHI broth medium shaken overnight. Cells were collected by centrifugation at 4,000 rpm for 5 minutes and suspended in PBS at a density of 10^8 colony-forming units (CFU)/mL (estimated by measuring the optical density at 600 nm; O.D 0.1=10^8 cells/mL). The microbial suspension in PBS was transferred to a 35×12-mm dish and mixed with different concentrations of menadione: 0, 0.5, 1 and 2 μg/mL for MRSA USA300, AF003 and IQ0064; 0, 1, 10 and 30 μg/mL for P. aeruginosa PA01; and 0, 16, 32, 64 and 128 μg/mL for E. coli ATCC 25922. After incubation in the dark at 25° C. for 1 hour, the planktonic suspension of cells at room temperature was irradiated using aBL (405 nm) at 50 mW/cm^2 with different radiant exposures (0-250 J/cm^2). During the aBL irradiation, 40 μL of samples were withdrawn every 15 minutes, and the CFUs were determined by 10-fold serial dilutions in PBS (10-1 to 10-7 dilution factors), plated on BHI agar plates as described previously [Ref. 17]. CFUs were counted after overnight incubation at 37° C. Experiments were performed in triplicate.
# [1] = tested on: E. coli biofilms in ex-vivo explants; experiment: Photoinactivation of biofilms in ex vivo porcine partial thickness wounds by menadione + aBL; format: cell-based, Escherichia coli
# Protocol: Skin was handled and sanitized with 70% isopropanol solution after hair shaving. The explants and inner wounds were created using a 12 mm and 4 mm biopsy punches respectively. The explants were placed in 12 wells plates using a (8 μm pore) inserts (Corning™ Falcon™). 1 mL of DMEM media was added to each well in the plate before the insert. After 24 hours, the inner wounds in the explants were inoculated with 20 μL of 10^8 CFU/mL of bacterial solution. After that, the explants were incubated at 37° C. and 5% CO2 for 48 hours to ensure the growth of a mature bacterial biofilm. The inner wounds of the explants were replenished daily with fresh BHI media to ensure that the wounds are hydrated.
# 48 hours following the inoculation, mature monobacterial biofilms of MRSA, P. aeruginosa, and E. coli were obtained with 8.00 log10 CFU/g per wound bed on each explant. MRSA biofilms in explant were reduced by 0.81 log10 CFU/g after the treatment of just aBL 250 J/cm^2 (50 mW/cm^2). However, MRSA biofilms in ex-vivo porcine skin were reduced by up to 4.18 log10 CFU/g when treated with aBL combined with menadione (200 μg/mL). For MRSA biofilms, the log reduction of mature monobacterial biofilm increased as the menadione concentration increased (see FIGS. 16A-16B). […]
# MRSA = experiment: General ROS by DCFH-DA assay in bacteria; format: cell-based, methicillin-resistant Staphylococcus aureus
# Protocol: 1.2.9.1 General ROS measured by […] (DCFH-DA) assay: DCF-DA was purchased from Thermofisher. […] The production of ROS by menadione when combined with blue light was measured in the presence and absence of bacteria. The bacteria (MRSA) was grown in BHI broth medium with shaking overnight. Cells were collected by centrifugation at 4,000 rpm for 5 minutes and resuspended in PBS in the stationary growth phase culture of 1×10^8 CFU/mL. The microbial suspension was transferred to a 35×12-mm dish, mixed with 10 μg/mL of menadione, and stained with 10 μM DCFH-DA solution per the manufacturer's instruction. The solutions (with and without bacteria) were irradiated with the blue light at 50 mW/cm^2 and the samples were collected every 15 minutes to be analyzed by Microplate Spectrofluorometer (SPECTRAmax®, Molecular Devices, USA) at λex=495 nm and λem=525 nm. The control and the menadione/dark groups were generated under the same conditions without irradiation.
# We investigated the possibility that minocycline and doxycycline might be acting as a photosensitizer. To do so, the production of ROS by minocycline and doxycycline combined with blue light was measured by the ROS probe DCF in MRSA. From FIG. 28, it can be observed that each of minocycline and doxycycline when combined with blue light at 405 nm produced ROS.
# S. aureus MN8 = S. aureus MN8 cultured aerobically vs anaerobically; cited from earlier work
# NorA efflux pump = NorA efflux pump (Staphylococcus aureus, UniProt P0A0J7); details: cited from earlier work
# [2] = in vivo; cited from earlier work
# Sequence of NorA efflux pump (P0A0J7 whole entry): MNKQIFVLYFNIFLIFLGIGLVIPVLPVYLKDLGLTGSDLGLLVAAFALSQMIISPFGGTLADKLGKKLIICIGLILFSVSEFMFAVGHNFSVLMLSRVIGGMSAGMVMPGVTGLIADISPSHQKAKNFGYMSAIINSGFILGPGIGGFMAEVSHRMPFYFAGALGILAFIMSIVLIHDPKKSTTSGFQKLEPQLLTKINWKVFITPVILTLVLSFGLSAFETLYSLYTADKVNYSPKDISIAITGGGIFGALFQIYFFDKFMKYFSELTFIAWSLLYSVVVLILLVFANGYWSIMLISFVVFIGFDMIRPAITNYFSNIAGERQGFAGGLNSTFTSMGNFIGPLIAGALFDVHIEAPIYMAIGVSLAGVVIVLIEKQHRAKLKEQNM
structure (smiles),measurement,setting,value
"CC1=CC(=O)c2ccccc2C1=O [menadione, 2-methyl-1,4-naphthoquinone]",eradication by aBL combined with menadione,P. aeruginosa,4.54 log10 CFU/mL
same,response of biofilms to aBL and menadione,[1],did not respond
same,"production of ROS measured by DCF, menadione+aBL vs aBL alone","MRSA; MRSA, 10 μg/mL menadione, 180 J/cm^2",two times higher
same,ROS generation in bacteria by menadione in the dark,MRSA; absolute dark,does not appear to generate significant ROS
same,"increase of total ROS, menadione combined with aBL","MRSA; bacteria, menadione + aBL",2.5 fold
same,"bactericidal activity, aerobic vs anaerobic culture",S. aureus MN8,4 fold
same,inhibition of efflux pump gene expression and efflux pump function,NorA efflux pump,significant inhibition
same,adverse effect at high doses,[2],hepatitis
